This note sets out measurements from patent US12344610B2, “APOL1 inhibitors and methods of use” (Maze Therapeutics, Inc., priority 2022, dated 2025).

What all share (assay type): cell-based
What all share (conditions): geometric mean of at least 2 assay runs, † = single assay run

Assay [1] deals with HEK293 cells overexpressing APOL1 G2. Description: APOL1 G2 HEK293 cell rescue assay (reversal of cell death caused by overexpression of APOL1). In outline: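 Each compound tested in duplicate wells on one plate per run, with values usually the geometric mean across at least two runs on different days, occasionally from one run only. Read-out: concentration giving half-maximal rescue of APOL1 G2 overexpression-induced death of HEK293 cells.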

The subject of assay [2] is Trypanosoma brucei Lister 427 VSG221 with APOL1 G0 recombinant protein. Nature of the assay: APOL1 G0 trypanosome cell rescue assay (Example B5). In outline: (§1)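 Viability read by CellTiter-Glo luminescence after 20 h co-incubation (37° C, 5% CO2) of 250 trypanosomes/well in modified HMI-9 with test compound (duplicate 11-point, 2-fold dilutions, 0.4% DMSO) and APOL1 protein, […]. Protein: mature residues 28-398, E. coli inclusion-body refolded, tag cleaved, in DDM.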

Assay [3] relates to Trypanosoma brucei Lister 427 VSG221 with APOL1 G1 recombinant protein. Description: APOL1 G1 trypanosome cell rescue assay (Example B5). In outline: as §1
[4] abbreviates: Homo sapiens, HEK293, HEK293 overexpressing APOL1 G2.
Where [5] appears, read: Trypanosoma brucei, 20 h, read-out: APOL1 G0 Trypanosome Rescue EC50, Trypanosoma brucei Lister 427 VSG221 with APOL1 G0 recombinant protein, 20 hours, CellTiter-Glo.
Setting [6] is: Trypanosoma brucei, 20 h, read-out: APOL1 G1 Trypanosome Rescue EC50, Trypanosoma brucei Lister 427 VSG221 with APOL1 G1 recombinant protein, 20 hours, CellTiter-Glo.
Where [7] appears, read: read-out: APOL1 G0 Trypanosome Rescue EC50, Trypanosoma brucei Lister 427 VSG221 with APOL1 G0 recombinant protein, 20 hours, CellTiter-Glo.
The mark [8] stands for this setting: read-out: APOL1 G1 Trypanosome Rescue EC50, Trypanosoma brucei Lister 427 VSG221 with APOL1 G1 recombinant protein, 20 hours, CellTiter-Glo.

A word on the EC50: it is the concentration at which the effect is half-maximal.

Where two headings read alike, the source gives them in different places.

Consider `CS(=O)(=O)N(CCO)c1ccc(OCCN2CCC3(CC2)C(=O)Nc2ccc(Cl)cc23)cc1` [Compound 98, N-[4-(2-{5-chloro-2-oxo-1,2-dihydrospiro[indole-3,4′-piperidin]-1′-yl}ethoxy)phenyl]-N-(2-hydroxyethyl)methanesulfonamide], for which the concentration for a half-maximal effect (EC50) in assay [1] (setting [4]) came out at 54.4 nM; in assay [2] (setting [5]), 207 nM; in assay [3] (setting [6]), 259 nM.
`O=C1CCc2cc(OCCN3CCC4(CC3)C(=O)Nc3ccc(Cl)cc34)cnc2N1[C@H]1C[C@H](O)C1` [Compound 267, 5-chloro-1′-[2-({7-oxo-8-[(trans)-3-hydroxycyclobutyl]-5,6,7,8-tetrahydro-1,8-naphthyridin-3-yl}oxy)ethyl]-1,2-dihydrospiro[indole-3,4′-piperidin]-2-one]: the EC50 turned out to be 37.8 nM in assay [1] (setting [4]), 95.4 nM in assay [2] (setting [5]) and 115 nM in assay [3] (setting [6]).
`CS(=O)(=O)C1(c2ccc(OCCN3CCC4(CC3)C(=O)Nc3ccc(Cl)cc34)cc2)CC(O)C1` (stereo not drawn) [Compound 269, 5-chloro-1′-(2-{4-[(cis) or (trans)-3-hydroxy-1-methanesulfonylcyclobutyl]phenoxy}ethyl)-1,2-dihydrospiro[indole-3,4′-piperidin]-2-one]: the EC50 was determined as 102 nM in assay [1] (HEK293 overexpressing APOL1 G2), 207 nM in assay [2] (setting [7]) and 277 nM in assay [3] (setting [8]).
As to `CS(=O)(=O)C1(c2ccc(OCCN3CCC4(CC3)C(=O)Nc3ccc(Cl)cc34)cc2)CC(O)C1` (stereo not drawn) [Compound 270, 5-chloro-1′-(2-{4-[(trans) or (cis)-3-hydroxy-1-methanesulfonylcyclobutyl]phenoxy}ethyl)-1,2-dihydrospiro[indole-3,4′-piperidin]-2-one], the figures for the EC50 in assay [1] (HEK293 overexpressing APOL1 G2), in assay [2] (setting [7]) and in assay [3] (setting [8]) were 25.6 nM, 72.5 nM and 82.2 nM, respectively.
As for `C[C@]1(O)C[C@@H](n2c(=O)cnc3cc(OCCN4CCC5(CC4)C(=O)Nc4ccc(Cl)cc45)cnc32)C1` [Compound 358, 5-chloro-1′-[2-({3-oxo-4-[(cis)-3-hydroxy-3-methylcyclobutyl]-3H,4H-pyrido[2,3-b]pyrazin-7-yl}oxy)ethyl]-1,2-dihydrospiro[indole-3,4′-piperidin]-2-one], the half-maximal effective concentration (EC50) in assay [1] (setting [4]) came to 65 nM; in assay [2] (setting [5]), 62.1 nM; in assay [3] (setting [6]), 75.2 nM.
The matching figures for `CC1(O)CN(c2ncc(OCCN3CCC4(CC3)C(=O)Nc3ccc(C(F)F)cc34)cn2)C1` [Compound 395, 5-(difluoromethyl)-1′-(2-{[2-(3-hydroxy-3-methylazetidin-1-yl)pyrimidin-5-yl]oxy}ethyl)-1,2-dihydrospiro[indole-3,4′-piperidin]-2-one]: 86.8 nM, 240 nM and 312 nM.
